Our source for the remaining activity values is patent publication US11912699B2, “Tau-protein targeting compounds and associated” (Arvinas Operations, Inc., priority 2019, dated 2024).

This test has as its target T1, Tau P301L (Homo sapiens, UniProt P10636, P618L).
T1 construct: expressed in transfected cells
In words: In vitro tau degradation assay in CHOK1 Tau P301L cells (sarkosyl insoluble tau, WES). The note with it: CHO-K1; remaining tau protein in sarkosyl insoluble pellet; CHOK1 Tau P301L cells treated 48 hours with test compound at 1 μM, doxycycline removed for the last 24 hours; relative to DMSO doxycycline control; read-out: Tau Protein Degradation effect at 1 μM. Type of test: cell-based. The method, then:
Exemplary bifunctional molecules of the present disclosure are represented by the structures in Table 1, which includes associated data. In vitro tau protein degradation data in CHOK1 Tau P301L cells, as described below, is reported based on the remaining tau protein in the sarkosyl insoluble pellet following treatment of cells for 48 hours with test compound at the 1 μM concentration where the last 24 hours doxycycline was removed. The data are represented relative to DMSO doxycycline control: • A ≤50% of tau protein remaining (>50% of tau protein degraded) • B >50% of tau protein remaining ([…] of tau protein degraded)
Data for compounds in Table 1 was generated using in vitro tau Degradation Assay protocol as described in Methods for FIGS. 2A and 2B below.
FIGS. 2A and 2B. (2A) Tau expression was induced by addition (+) of doxycycline (1 μg/ml) to ChoK1-Tau P301L clone D1.
In vitro tau Degradation Assay for FIGS. 2A and 2B. T-Rex CHOK1 cells are maintained in Ham's F-12 Nutrient Mix (ThermoFisher) plus 10% Fetal Bovine Serum Tetracycline Negative (Corning) with 10 ug/mL Blasticidin S HCl (Gibco) and 200 ug/mL Zeocin (100 mg/mL, Invitrogen). A stable clone expressing Tau P301L in the presence of doxycycline (1 μg/ml), clone D1 was selected. Compounds were diluted to indicated concentrations and used to treat cells for the indicated times. Cells were harvested from either 96, 24, 6, or 10 cm dishes coated with Poly-D-Lysine (Corning) in ice cold PBS or Buffer H+HALT Protease and phosphatase inhibitors (Thermofisher). Sarkosyl Insoluble tau was isolated as described in Eckermann et al. and Greenberg and Davies, accordingly. WES™ capillary electrophoresis analysis was performed on the Sarkosyl Insoluble tau fraction using Tau1 antibody (Milipore) unless otherwise indicated, as specified in the manufacturers specification (ProteinSimple).

T1 sequence (P10636 1-441 isoform P10636-8 P301L): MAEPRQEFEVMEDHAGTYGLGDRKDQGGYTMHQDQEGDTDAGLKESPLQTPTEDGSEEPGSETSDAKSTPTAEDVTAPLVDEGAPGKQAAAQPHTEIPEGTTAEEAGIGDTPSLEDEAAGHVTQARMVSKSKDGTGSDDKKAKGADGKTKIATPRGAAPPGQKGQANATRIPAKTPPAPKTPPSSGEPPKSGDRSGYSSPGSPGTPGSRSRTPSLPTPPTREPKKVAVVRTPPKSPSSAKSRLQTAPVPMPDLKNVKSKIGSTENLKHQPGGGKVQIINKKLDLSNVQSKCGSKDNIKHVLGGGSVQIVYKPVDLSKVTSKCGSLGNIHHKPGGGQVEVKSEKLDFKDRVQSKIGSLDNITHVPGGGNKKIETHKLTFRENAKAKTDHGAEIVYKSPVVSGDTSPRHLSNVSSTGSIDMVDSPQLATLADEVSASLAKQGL

Turning to `Cc1ncsc1-c1ccc([C@H](C)NC(=O)[C@@H]2C[C@@H](O)CN2C(=O)[C@@H](c2cc(OCCN3CCC(OC4CN(c5ccc(-c6ccc7c8cnccc8n(C)c7c6)cn5)C4)CC3)no2)C(C)C)cc1` (single isomer, unassigned) [Compound 467], the remaining activity at 1 µM was above 50%.

With `Cc1ncsc1-c1ccc([C@H](C)NC(=O)[C@@H]2C[C@@H](O)CN2C(=O)C(c2cc(OCCOCCOCCOc3ccc(-c4ccc5c(c4)[nH]c4ccncc45)cn3)no2)C(C)C)cc1` (stereo in doubt) [Compound 395, (2S,4R)-1-((S)-2-(3-(2-(2-(2-((5-(5H-pyrido[4,3-b]indol-7-yl)pyridin-2-yl)oxy)ethoxy)ethoxy)ethoxy)isoxazol-5-yl)-3-methylbutanoyl)-4-hydroxy-N-((S)-1-(4-(4-methylthiazol-5-yl)phenyl)ethyl) pyrrolidine-2-carboxamide], the remaining activity at 1 µM is above 50%.

`Cn1c2ccncc2c2ccc(-c3ccc(O[C@H]4C[C@H](Oc5ccc(C#CCN6CC(Oc7ccc8c(c7)CN(C7CCC(=O)NC7=O)C8=O)C6)nc5)C4)nc3)cc21` (some centres unmarked) [Compound 340, 3-(5-((1-(3-(5-((1r,3r)-3-((5-(5-methyl-5H-pyrido[4,3-b]indol-7-yl)pyridin-2-yl)oxy)cyclobutoxy)pyridin-2-yl)prop-2-yn-1-yl)azetidin-3-yl)oxy)-1-oxoisoindolin-2-yl)piperidine-2,6-dione]: the remaining activity at 1 µM is above 50%.

For the compound `Cn1c2ccncc2c2ccc(-c3ccc(O[C@H]4C[C@H](OC5CCN(CCN6CCN(c7ccc8c(c7)C(=O)N(C7CCC(=O)NC7=O)C8=O)CC6)CC5)C4)nc3)cc21` (some centres unmarked) [Compound 341, 2-(2,6-dioxopiperidin-3-yl)-5-(4-(2-(4-((1r,3r)-3-((5-(5-methyl-5H-pyrido[4,3-b]indol-7-yl)pyridin-2-yl)oxy)cyclobutoxy)piperidin-1-yl)ethyl)piperazin-1-yl) isoindoline-1,3-dione], the remaining activity at 1 µM was above 50%.

For `Cn1c2ccncc2c2ccc(-c3ccc(O[C@H]4C[C@H](OCCCN5CCN(c6ccc7c(c6)C(=O)N(C6CCC(=O)NC6=O)C7=O)CC5)C4)nc3)cc21` (some centres unmarked) [Compound 343, 2-(2,6-dioxopiperidin-3-yl)-5-(4-(3-((1r,3r)-3-((5-(5-methyl-5H-pyrido[4,3-b]indol-7-yl)pyridin-2-yl)oxy)cyclobutoxy)propyl)piperazin-1-yl)isoindoline-1,3-dione], the remaining activity at 1 µM was below 50%.

Regarding `Cn1c2ccncc2c2ccc(-c3ccc(O[C@H]4C[C@H](Oc5ccc(C#CCNCCCc6ccc7c(c6)CN(C6CCC(=O)NC6=O)C7=O)nc5)C4)nc3)cc21` (some centres unmarked) [Compound 346, 3-(5-(3-((3-(5-((1r,3r)-3-((5-(5-methyl-5H-pyrido[4,3-b]indol-7-yl)pyridin-2-yl)oxy)cyclobutoxy)pyridin-2-yl)prop-2-yn-1-yl)amino)propyl) 1-oxoisoindolin-2-yl)piperidine-2,6-dione], the remaining activity at 1 µM was above 50%.

Regarding `Cc1ncsc1-c1ccc([C@H](C)NC(=O)[C@@H]2C[C@@H](O)CN2C(=O)[C@@H](NC(=O)COCCOCCOCCOCCOCCOc2cc3ccn(-c4cc5c(N)cccc5cn4)c3cn2)C(C)(C)C)cc1` [Compound 351, (2S,4R)-1-((S)-20-((1-(5-aminoisoquinolin-3-yl)-1H-pyrrolo[2,3-c]pyridin-5-yl)oxy)-2-(tert-butyl)-4-oxo-6,9,12,15,18-pentaoxa-3-azaicosanoyl)-4-hydroxy-N-((S)-1-(4-(4-methylthiazol-5-yl)phenyl)ethyl) pyrrolidine-2-carboxamide], the remaining activity at 1 µM was above 50%.

As for `Nc1cccc2cnc(-n3ccc4cc(OCCOCCOCCOCCOCCOc5ccc6c(c5)C(=O)N(C5CCC(=O)NC5=O)C6=O)ncc43)cc12` (centres unmarked) [Compound 352, 5-((14-((1-(5-aminoisoquinolin-3-yl)-1H-pyrrolo[2,3-c]pyridin-5-yl)oxy)-3,6,9, 12-tetraoxatetradecyl)oxy)-2-(2,6-dioxo-piperidin-3-yl) isoindoline-1,3-dione], the remaining activity at 1 µM was below 50%.
